pEC50: −log10 of the molar value. Like-named read-outs stand apart in the source and are kept apart here.

This experiment concerns the target CFTR (Homo sapiens, UniProt P13569). The experiment in a line: Membrane Potential Dye, Enteroid Assay A. The note with it: for pEC50: read-out: Ent. A EC50. It is filed as cell-based. The procedure, abridged: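 Signal is reported as % Activity relative to a triple CFTR modulator control (3 μM + 3 μM + 300 nM acute). Read-out: membrane potential fluorescence (20 μM methyl oxonol) monitored for 15 min after chloride-free stimulation. Dye loading took 25 min at room temperature in Bath 1 buffer containing CaCC blockers.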

Chain of CFTR (P13569 with tags, fused parts or gaps DEL508-508): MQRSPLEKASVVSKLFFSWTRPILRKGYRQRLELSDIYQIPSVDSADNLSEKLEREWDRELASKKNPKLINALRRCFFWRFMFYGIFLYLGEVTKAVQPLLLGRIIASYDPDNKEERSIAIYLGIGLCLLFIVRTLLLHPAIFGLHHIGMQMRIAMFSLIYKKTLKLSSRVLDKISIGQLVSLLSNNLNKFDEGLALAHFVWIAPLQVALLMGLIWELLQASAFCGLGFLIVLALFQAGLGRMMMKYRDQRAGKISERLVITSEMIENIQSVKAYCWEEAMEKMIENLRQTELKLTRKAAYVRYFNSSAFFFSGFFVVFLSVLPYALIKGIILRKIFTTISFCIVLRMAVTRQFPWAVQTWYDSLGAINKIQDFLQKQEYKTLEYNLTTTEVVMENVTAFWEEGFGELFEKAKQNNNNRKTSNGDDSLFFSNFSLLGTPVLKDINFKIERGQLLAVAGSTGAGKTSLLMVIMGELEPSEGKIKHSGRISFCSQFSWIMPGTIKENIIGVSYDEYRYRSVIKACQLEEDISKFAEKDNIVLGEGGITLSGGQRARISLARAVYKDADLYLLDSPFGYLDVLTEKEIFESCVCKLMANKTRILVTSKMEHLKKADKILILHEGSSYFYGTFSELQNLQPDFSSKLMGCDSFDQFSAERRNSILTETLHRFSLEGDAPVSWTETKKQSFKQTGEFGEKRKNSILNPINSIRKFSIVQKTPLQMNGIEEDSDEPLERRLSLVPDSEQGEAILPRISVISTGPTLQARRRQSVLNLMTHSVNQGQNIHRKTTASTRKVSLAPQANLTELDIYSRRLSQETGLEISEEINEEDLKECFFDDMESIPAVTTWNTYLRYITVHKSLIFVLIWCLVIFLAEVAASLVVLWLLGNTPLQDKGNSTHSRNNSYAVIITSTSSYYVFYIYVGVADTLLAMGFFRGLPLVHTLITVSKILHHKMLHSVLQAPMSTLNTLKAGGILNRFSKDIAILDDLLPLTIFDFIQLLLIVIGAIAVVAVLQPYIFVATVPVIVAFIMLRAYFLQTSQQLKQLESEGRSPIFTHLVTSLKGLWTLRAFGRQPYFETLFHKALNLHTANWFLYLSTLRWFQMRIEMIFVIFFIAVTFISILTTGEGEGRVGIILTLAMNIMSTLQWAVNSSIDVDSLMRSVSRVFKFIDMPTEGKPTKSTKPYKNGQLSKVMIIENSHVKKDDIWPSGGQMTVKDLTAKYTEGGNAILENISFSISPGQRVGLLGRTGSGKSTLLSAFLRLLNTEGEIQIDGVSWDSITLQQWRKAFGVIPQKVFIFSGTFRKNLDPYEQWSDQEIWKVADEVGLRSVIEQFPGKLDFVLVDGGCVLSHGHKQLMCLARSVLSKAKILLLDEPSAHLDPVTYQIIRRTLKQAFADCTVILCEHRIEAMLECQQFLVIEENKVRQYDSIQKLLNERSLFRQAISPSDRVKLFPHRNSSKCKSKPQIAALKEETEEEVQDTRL

In the case of `Cc1cccc(C)c1-c1cc2nc(n1)NS(=O)(=O)c1cccc(c1)C(=O)NC1(CCN(C3CC4(CC4)C3)CC1)CO2` [Compound 174], where the note is “Table 9”, the “Ent. A Max Activity” value is “+++ (+++ is >60%)” and the pEC50 (commonly the negative decadic logarithm of the EC50, by convention in mol/L) is 5.52 to 6.00.
Regarding `Cc1cccc(C)c1-c1cc2nc(n1)NS(=O)(=O)c1cccc(c1)C(=O)NC1(CCN(C(C)C)CC1)CO2` [Compound 175], for the setting “Table 9”, the “Ent. A Max Activity” value is given as “+ (+ is <30%)” and the pEC50 was 4.52 to 5.52.
For the compound `Cc1cccc(C)c1-c1cc2nc(n1)NS(=O)(=O)c1cccc(c1)C(=O)NC(C)(CC(C)C)CO2` (centres unmarked) [Compound 176], where the note is “Table 9”, the “Ent. A Max Activity” value is on record as “+++ (+++ is >60%)” and the pEC50 was more than 6.00.
Regarding `CC(C)C[C@@H]1COc2cc(-c3ncccn3)nc(n2)NS(=O)(=O)c2cccc(c2)C(=O)N1` [Compound 178], the “Ent. A Max Activity” value (Table 9) is recorded as “+ (+ is <30%)”.
Consider `Cc1cnn(C)c1-c1cc2nc(n1)NS(=O)(=O)c1cccc(c1)C(=O)N[C@H](CC(C)C)CO2` [Compound 179], for which, under “Table 9”, the “Ent. A Max Activity” value was “++ (++ is 30-60%)” and the pEC50 is 4.52 to 5.52.
On to `CCCC1(CCC)COc2cc(-c3c(C)cccc3C)nc(n2)NS(=O)(=O)c2cccc(c2)C(=O)N1` [Compound 184], for which, under “Table 9”, the “Ent. A Max Activity” value was “+++ (+++ is >60%)” and the pEC50 was more than 6.00.
For `CCCCC1(CCCC)COc2cc(-c3c(C)cccc3C)nc(n2)NS(=O)(=O)c2cccc(c2)C(=O)N1` [Compound 185], in that order: “+++ (+++ is >60%)” and more than 6.00.
As for `Cc1cccc(C)c1-c1cc2nc(n1)NS(=O)(=O)c1cccc(c1)C(=O)NC(CCC1CCOCC1)CO2` (centres unmarked) [Compound 186], where the note is “Table 8”, the “Ent. A Max Activity” value is listed as “+++ (+++ is >60%)” and the pEC50 is 4.52 to 5.52.
For `Cc1cccc(C)c1-c1cc2nc(n1)NS(=O)(=O)c1cccc(c1)C(=O)N[C@H](CC1CCC(F)(F)CC1)CO2` [Compound 187], in that order: “+++ (+++ is >60%)” and more than 6.00.
On the same counts, the results for `Cc1cccc(C)c1-c1cc2nc(n1)NS(=O)(=O)c1cccc(c1)C(=O)NC(CC1CCCC1)CO2` (centres unmarked) [Compound 188] are “+++ (+++ is >60%)” and more than 6.00.
In the case of `Cc1cccc(C)c1-c1cc2nc(n1)NS(=O)(=O)c1cccc(c1)C(=O)NC1CC(CN(CCC3(C(F)(F)F)CC3)C1)O2` (centres unmarked) [Compound 194], where the note is “Enteroid Assay A”, the pEC50 is 5.52 to 6.00.
With `Cc1cccc(C)c1-c1cc2nc(n1)NS(=O)(=O)c1cccc(c1)C(=O)NC1CC(CN(CCC(C)(C)C3CC3)C1)O2` (centres unmarked) [Compound 195], the pEC50 (Enteroid Assay A) was more than 6.00.
As for `Cc1cccc(C)c1-c1cc2nc(n1)NS(=O)(=O)c1cccc(c1)C(=O)NCc1cccc(c1)O2` [Compound 197], where the note is “Enteroid Assay A”, the “Ent. A Max Activity” value is “++ (++ is 30-60%)” and the pEC50 is 4.52 to 5.52.
As for `Cc1cccc(C)c1-c1cc2nc(n1)NS(=O)(=O)c1cccc(c1)C(=O)NC1CC(CN(C(=O)OCc3ccccc3)C1)O2` (centres unmarked) [Compound 200], under “Enteroid Assay A”, the “Ent. A Max Activity” value is listed as “++ (++ is 30-60%)” and the pEC50 was 4.52 to 5.52.
In the case of `Cc1cccc(C)c1-c1cc2nc(n1)NS(=O)(=O)c1cccc(c1)C(=O)NCC(c1ccccc1)CO2` (centres unmarked) [Compound 201], the pEC50 (Enteroid Assay A) is more than 6.00.
With `Cc1cccc(C)c1-c1cc2nc(n1)NS(=O)(=O)c1cccc(c1)C(=O)NCC1(CCCCC1)CO2` [Compound 205], for the setting “Enteroid Assay A”, the “Ent. A Max Activity” value is reported as “+++ (+++ is >600%)” and the pEC50 was more than 6.00.
Take `Cc1cccc(C)c1-c1cc2nc(n1)NS(=O)(=O)c1ccccc1C(=O)NCC(c1ccc(C(C)(C)C)cc1)O2` (centres unmarked) [Compound 222]: the “Ent. A Max Activity” value (Table 9) is given as “+ (+ is <30%)”.
Still for that read-out and setting: the entry for `Cc1cccc(C)c1-c1cc2nc(n1)NS(=O)(=O)c1ccccc1C(=O)NC(CC(C)C)CO2` (centres unmarked) [Compound 223] is “+ (+ is <30%)”.
`Cc1cccc(C)c1-c1cc2nc(n1)NS(=O)(=O)c1cccc(c1)C(=O)N[C@@H](CC(C)C)CCO2` [Compound 224]: for the setting “Table 9”, the “Ent. A Max Activity” value was “++ (++ is 30-60%)” and the pEC50 is 5.52 to 6.00.
Take `Cc1cccc(C)c1-c1cc2nc(n1)NS(=O)(=O)c1cccc(c1)C(=O)N[C@H](CC(C)C)CCO2` [Compound 225]: under “Table 9”, the “Ent. A Max Activity” value was “+++ (+++ is >60%)” and the pEC50 was more than 6.00.
For `CCC[C@H]1NC(=O)c2cccc(c2)S(=O)(=O)Nc2nc(cc(-c3c(C)cccc3C)n2)O[C@H]1c1ccc(C(C)(C)C)cc1` [Compound 226], in that order: “+++ (+++ is >60%)” and more than 6.00.
For `CCC[C@H]1NC(=O)c2cccc(c2)S(=O)(=O)Nc2nc(cc(-c3c(C)cccc3C)n2)O[C@@H]1c1ccc(C(C)(C)C)cc1` [Compound 227], in that order: “+++ (+++ is >60%)” and more than 6.00.
As to `Cc1cccc(C)c1-c1cc2nc(n1)NS(=O)(=O)c1cccc(c1)C(=O)N[C@@H](C)[C@H](c1ccc(C(C)(C)C)cc1)O2` [Compound 228], under “Table 9”, the “Ent. A Max Activity” value is recorded as “+ (+ is <30%)” and the pEC50 was more than 6.00.
`Cc1cccc(C)c1-c1cc2nc(n1)NS(=O)(=O)c1cccc(c1)C(=O)NCC(c1ccc(-c3ccccc3)cc1)O2` (centres unmarked) [Compound 231]: the pEC50 (Table 8) is more than 6.00.
With `Cc1cccc(C)c1-c1cc2nc(n1)NS(=O)(=O)c1cccc(c1)C(=O)NC[C@@H](c1ccccn1)O2` [Compound 232], the “Ent. A Max Activity” value (Table 8) was “+ (+ is <30%)”.
`Cc1cccc(C)c1-c1cc2nc(n1)NS(=O)(=O)c1cccc(c1)C(=O)NC[C@@H](c1ccccn1)O2` [Compound 233]: for the setting “Table 8”, the “Ent. A Max Activity” value is reported as “+ (+ is <30%)”.
As for `Cc1cccc(C)c1-c1cc2nc(n1)NS(=O)(=O)c1cccc(c1)C(=O)NCC(c1ccccn1)O2` (centres unmarked) [Compound 234], under “Table 8”, the “Ent. A Max Activity” value is recorded as “+ (+ is <30%)”.
For the compound `Cc1cccc(C)c1-c1cc2nc(n1)NS(=O)(=O)c1cccc(c1)C(=O)N[C@H](CC(C)C)[C@H](C)O2` [Compound 235], under “Table 8”, the “Ent. A Max Activity” value is on record as “+++ (+++ is >60%)” and the pEC50 is more than 6.00.
Regarding `Cc1cccc(C)c1-c1cc2nc(n1)NS(=O)(=O)c1cccc(c1)C(=O)NC(C(=O)NCc1ccccc1)CO2` (centres unmarked) [Compound 236], under “Table 8”, the “Ent. A Max Activity” value was “+ (+ is <30%)”.
`Cc1cccc(C)c1-c1cc2nc(n1)NS(=O)(=O)c1cccc(c1)C(=O)NC(C(=O)NC1CCCCC1)CO2` (centres unmarked) [Compound 237]: the “Ent. A Max Activity” value (Table 8) was “+ (+ is <30%)”.
As for `Cc1cccc(C)c1-c1cc2nc(n1)NS(=O)(=O)c1cccc(c1)C(=O)N[C@H](CC(C)C)C(C1CC1)O2` (some centres unmarked) [Compound 238], under “Table 8”, the “Ent. A Max Activity” value is given as “+++ (+++ is >60%)” and the pEC50 is 5.52 to 6.00.
Turning to `Cc1cccc(C)c1-c1cc2nc(n1)NS(=O)(=O)c1cccc(c1)CN[C@H](CC(C)C)CO2` [Compound 240], where the note is “Table 9”, the “Ent. A Max Activity” value is recorded as “++ (++ is 30-60%)” and the pEC50 is 4.52 to 5.52.
`Cc1cccc(C)c1-c1cc2nc(n1)NS(=O)(=O)c1cccc(c1)C(=O)NCC(Cc1ccc(C(C)(C)C)cc1)O2` (centres unmarked) [Compound 241]: for the setting “Table 8”, the “Ent. A Max Activity” value is given as “+++ (+++ is >60%)” and the pEC50 was more than 6.00.
As to `Cc1cccc(C)c1-c1cc2nc(n1)NS(=O)(=O)c1cccc(c1)C(=O)NCC(Cc1ccc(C(C)(C)C)cc1)O2` (centres unmarked) [Compound 242], for the setting “Table 8”, the pEC50 is more than 6.00.
`Cc1cccc(C)c1-c1cc2nc(n1)NS(=O)(=O)c1cccc(c1)C(=O)NCC(Cc1ccc(C(C)(C)C)cc1)O2` (centres unmarked) [Compound 243]: where the note is “Table 8”, the “Ent. A Max Activity” value was “+++ (+++ is >60%)” and the pEC50 is more than 6.00.
With `Cc1cccc(C)c1-c1cc2nc(n1)NS(=O)(=O)c1cccc(c1)C(=O)NCC(C13CC4CC(CC(C4)C1)C3)O2` (centres unmarked) [Compound 244], the pEC50 (Table 8) was more than 6.00.
Regarding `Cc1cccc(C)c1-c1cc2nc(n1)NS(=O)(=O)c1cccc(c1)C(=O)NCC(c1ccc(C(C)(C)O)cc1)O2` (centres unmarked) [Compound 245], under “Table 8”, the pEC50 was 4.52 to 5.52.
As for `Cc1cccc(C)c1-c1cc2nc(n1)NS(=O)(=O)c1cccc(c1)C(=O)NCC(c1cccc(C(C)(C)C)c1)O2` (centres unmarked) [Compound 247], for the setting “Table 8”, the “Ent. A Max Activity” value was “+++ (+++ is >60%)” and the pEC50 is more than 6.00.
Take `Cc1cccc(C)c1-c1cc2nc(n1)NS(=O)(=O)c1cccc(c1)C(=O)NCC(C1CCN(C(=O)OC(C)(C)C)CC1)O2` (centres unmarked) [Compound 248]: under “Table 8”, the “Ent. A Max Activity” value is “+++ (+++ is >60%)” and the pEC50 was more than 6.00.
Turning to `Cc1cccc(C)c1-c1cc2nc(n1)NS(=O)(=O)c1cccc(c1)C(=O)NCC(c1ccc(OC(C)C)cc1)O2` (centres unmarked) [Compound 249], the pEC50 (Table 8) is more than 6.00.
For `Cc1cccc(C)c1-c1cc2nc(n1)NS(=O)(=O)c1cccc(c1)C(=O)NCC(c1ccc(C#N)cc1)O2` (centres unmarked) [Compound 250], for the setting “Table 8”, the “Ent. A Max Activity” value is on record as “+++ (+++ is >60%)” and the pEC50 is more than 6.00.
On the same counts, the results for `Cc1cccc(C)c1-c1cc2nc(n1)NS(=O)(=O)c1cccc(c1)C(=O)NCC(c1ccc(Cl)cc1)O2` (centres unmarked) [Compound 251] are “+++ (+++ is >60%)” and more than 6.00.
Turning to `Cc1cccc(C)c1-c1cc2nc(n1)NS(=O)(=O)c1cccc(c1)C(=O)NCC(c1cccc(C#N)c1)O2` (centres unmarked) [Compound 252], the pEC50 (Table 8) was 4.52 to 5.52.
Regarding `Cc1cccc(C)c1-c1cc2nc(n1)NS(=O)(=O)c1cccc(c1)C(=O)NCC(c1ccc3ccccc3c1)O2` (centres unmarked) [Compound 253], under “Table 8”, the “Ent. A Max Activity” value is “+++ (+++ is >60%)” and the pEC50 is more than 6.00.
Regarding `Cc1cccc(C)c1-c1cc2nc(n1)NS(=O)(=O)c1cccc(c1)C(=O)NC[C@@H](CC(C)C)O2` [Compound 254], where the note is “Table 8”, the “Ent. A Max Activity” value is reported as “+ (+ is <30%)”.
As to `Cc1cccc(C)c1-c1cc2nc(n1)NS(=O)(=O)c1cccc(c1)C(=O)NCC(CC(C)C)O2` (centres unmarked) [Compound 255], the pEC50 (Table 8) is 5.52 to 6.00.
As to `Cc1cccc(C)c1-c1cc2nc(n1)NS(=O)(=O)c1cccc(c1)C(=O)NC[C@@H](c1ccc(C(C)(C)C(F)(F)F)cc1)O2` [Compound 256], under “Table 9”, the “Ent. A Max Activity” value is recorded as “+++ (+++ is >60%)” and the pEC50 is more than 6.00.
On the same counts, the results for `Cc1cccc(C)c1-c1cc2nc(n1)NS(=O)(=O)c1cccc(c1)C(=O)NC[C@@H](c1ccc(C(C)(C)C(F)(F)F)cc1)O2` [Compound 257] are “+ (+ is <30%)” and more than 6.00.

Values taken from US20230382924A1, “MODULATORS OF CYSTIC FIBROSIS TRANSMEMBRANE CONDUCTANCE REGULATOR” (VERTEX PHARMACEUTICALS INCORPORATED, priority 2020, published 2023).
